The record followed here is ChEMBL document CHEMBL4184336, “Structure-Guided Modification of Heterocyclic Antagonists of the P2Y14 Receptor” (J Med Chem, 2018).

Structures are written as SMILES.

The target in series [1] is Delta-type opioid receptor (Homo sapiens, UniProt P41143). Description: Displacement of [3H]-DADLE from human delta opioid receptor expressed in HEK293 cells after 90 mins by scintillation counting method. It counts as cell-based.
Series [2] is described as follows: Half life in Sprague-Dawley rat plasma at 0.5 mg/kg, iv. It counts as ADME, organism-based.
The next series concerns the target Cytochrome P450 1A2 (Homo sapiens, UniProt P05177). Kind of series: Inhibition of CYP1A2 (unknown origin). It counts as ADME.
For a further series, the target named is Cytochrome P450 2C9 (Homo sapiens, UniProt P11712). Kind of series: Inhibition of CYP2C9 (unknown origin). It counts as ADME.
The target in another series is Cytochrome P450 2C19 (Homo sapiens, UniProt P33261). Kind of series: Inhibition of CYP2C19 (unknown origin). It counts as ADME.
The target of another series is Cytochrome P450 2D6 (Homo sapiens, UniProt P10635). Description: Inhibition of CYP2D6 (unknown origin). It counts as ADME.
For another series, the target named is Cytochrome P450 3A4 (Homo sapiens, UniProt P08684). Kind of series: Inhibition of CYP3A4 (unknown origin). It counts as ADME.
Series [3] can be described thus: Metabolic stability in human plasma assessed as parent compound remaining after 120 mins. It counts as ADME, cell-free. Particulars: read-out: Stability.
A short description of series [4]: Metabolic stability in rat plasma assessed as parent compound remaining after 120 mins. It counts as ADME, cell-free. Particulars: read-out: Stability.
Series [5] in a line: Metabolic stability in mouse plasma assessed as parent compound remaining after 120 mins. It counts as ADME, cell-free. Particulars: read-out: Stability.
Another series deals with HepG2. Description: Cytotoxicity against human HepG2 cells. It counts as cell-based.
Series [6] can be described thus: Aqueous solubility of the compound. It counts as physicochemical. The note with it: buffer.
The target of series [7] is Voltage-gated inwardly rectifying potassium channel KCNH2 (Homo sapiens, UniProt Q12809). Kind of series: Inhibition of human ERG.
For the next series, the target named is T1, P2Y purinoceptor 14 (Homo sapiens, UniProt Q15391).
T1 sequence (Q15391 whole entry): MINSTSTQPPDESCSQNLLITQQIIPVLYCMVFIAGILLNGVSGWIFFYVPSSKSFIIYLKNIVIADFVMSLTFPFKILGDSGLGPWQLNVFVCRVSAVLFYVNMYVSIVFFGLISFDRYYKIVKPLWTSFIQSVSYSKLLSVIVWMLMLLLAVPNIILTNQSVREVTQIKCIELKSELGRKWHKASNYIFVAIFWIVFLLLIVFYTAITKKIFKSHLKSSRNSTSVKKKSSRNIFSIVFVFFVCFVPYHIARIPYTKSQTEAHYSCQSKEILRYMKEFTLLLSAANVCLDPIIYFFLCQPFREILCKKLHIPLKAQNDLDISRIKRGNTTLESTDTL

Chain of Voltage-gated inwardly rectifying potassium channel KCNH2 (Q12809 whole entry): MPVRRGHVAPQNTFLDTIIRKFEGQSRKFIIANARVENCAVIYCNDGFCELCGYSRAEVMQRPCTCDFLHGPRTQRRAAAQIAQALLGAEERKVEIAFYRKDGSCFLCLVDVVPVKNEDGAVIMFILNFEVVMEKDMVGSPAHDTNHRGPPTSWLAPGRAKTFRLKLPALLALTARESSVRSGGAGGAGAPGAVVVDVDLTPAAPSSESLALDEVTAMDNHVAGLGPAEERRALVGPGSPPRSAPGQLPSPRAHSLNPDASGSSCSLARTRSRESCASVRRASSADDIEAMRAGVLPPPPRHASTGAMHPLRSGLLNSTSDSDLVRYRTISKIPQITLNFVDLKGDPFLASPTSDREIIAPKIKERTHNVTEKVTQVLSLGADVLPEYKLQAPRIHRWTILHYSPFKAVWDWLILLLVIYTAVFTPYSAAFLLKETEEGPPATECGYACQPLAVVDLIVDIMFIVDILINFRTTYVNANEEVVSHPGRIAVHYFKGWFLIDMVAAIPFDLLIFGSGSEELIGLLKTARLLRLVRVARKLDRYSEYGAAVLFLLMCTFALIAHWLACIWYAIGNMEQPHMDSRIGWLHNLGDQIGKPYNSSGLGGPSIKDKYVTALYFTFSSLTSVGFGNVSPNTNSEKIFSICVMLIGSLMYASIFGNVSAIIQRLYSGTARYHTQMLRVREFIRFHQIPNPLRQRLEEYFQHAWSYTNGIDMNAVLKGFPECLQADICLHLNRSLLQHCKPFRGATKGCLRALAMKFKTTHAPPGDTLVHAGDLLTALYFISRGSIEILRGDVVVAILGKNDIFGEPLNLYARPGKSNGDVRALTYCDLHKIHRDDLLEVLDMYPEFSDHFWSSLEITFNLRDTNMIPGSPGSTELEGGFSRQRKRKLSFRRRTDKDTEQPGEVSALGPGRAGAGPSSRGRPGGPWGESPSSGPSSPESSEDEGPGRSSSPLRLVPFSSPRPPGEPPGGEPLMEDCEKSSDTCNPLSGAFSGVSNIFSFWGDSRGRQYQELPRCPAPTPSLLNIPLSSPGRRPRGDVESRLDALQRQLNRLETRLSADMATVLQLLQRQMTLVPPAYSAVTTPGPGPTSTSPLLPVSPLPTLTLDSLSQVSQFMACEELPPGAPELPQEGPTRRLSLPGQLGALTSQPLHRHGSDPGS
Chain of Cytochrome P450 2D6 (P10635 whole entry): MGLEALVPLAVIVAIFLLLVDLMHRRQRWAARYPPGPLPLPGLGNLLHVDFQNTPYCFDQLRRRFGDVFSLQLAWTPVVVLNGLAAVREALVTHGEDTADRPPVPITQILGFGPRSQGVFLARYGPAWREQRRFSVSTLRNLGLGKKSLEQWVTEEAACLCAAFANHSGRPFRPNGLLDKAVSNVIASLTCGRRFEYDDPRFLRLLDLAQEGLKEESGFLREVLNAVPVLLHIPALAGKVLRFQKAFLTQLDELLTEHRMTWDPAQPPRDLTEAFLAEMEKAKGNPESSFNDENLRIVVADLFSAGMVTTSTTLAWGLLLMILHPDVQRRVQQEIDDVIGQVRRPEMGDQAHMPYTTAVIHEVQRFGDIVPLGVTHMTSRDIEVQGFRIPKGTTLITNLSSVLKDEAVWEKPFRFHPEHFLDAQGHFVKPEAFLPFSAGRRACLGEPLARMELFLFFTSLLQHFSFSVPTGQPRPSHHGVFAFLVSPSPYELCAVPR
Chain of Cytochrome P450 2C9 (P11712 whole entry): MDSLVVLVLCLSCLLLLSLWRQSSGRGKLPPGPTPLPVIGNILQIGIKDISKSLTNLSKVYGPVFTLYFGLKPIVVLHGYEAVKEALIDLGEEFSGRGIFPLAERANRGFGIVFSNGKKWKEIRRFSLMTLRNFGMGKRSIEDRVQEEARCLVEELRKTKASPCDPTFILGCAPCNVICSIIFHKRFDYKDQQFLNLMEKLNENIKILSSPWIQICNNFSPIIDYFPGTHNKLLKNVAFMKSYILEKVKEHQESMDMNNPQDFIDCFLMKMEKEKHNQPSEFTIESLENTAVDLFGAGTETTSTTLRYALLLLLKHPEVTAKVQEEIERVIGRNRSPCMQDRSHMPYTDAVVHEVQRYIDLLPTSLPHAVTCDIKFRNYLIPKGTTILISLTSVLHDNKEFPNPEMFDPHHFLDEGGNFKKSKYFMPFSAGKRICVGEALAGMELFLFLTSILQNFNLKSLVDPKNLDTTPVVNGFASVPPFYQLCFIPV
Chain of Delta-type opioid receptor (P41143 whole entry): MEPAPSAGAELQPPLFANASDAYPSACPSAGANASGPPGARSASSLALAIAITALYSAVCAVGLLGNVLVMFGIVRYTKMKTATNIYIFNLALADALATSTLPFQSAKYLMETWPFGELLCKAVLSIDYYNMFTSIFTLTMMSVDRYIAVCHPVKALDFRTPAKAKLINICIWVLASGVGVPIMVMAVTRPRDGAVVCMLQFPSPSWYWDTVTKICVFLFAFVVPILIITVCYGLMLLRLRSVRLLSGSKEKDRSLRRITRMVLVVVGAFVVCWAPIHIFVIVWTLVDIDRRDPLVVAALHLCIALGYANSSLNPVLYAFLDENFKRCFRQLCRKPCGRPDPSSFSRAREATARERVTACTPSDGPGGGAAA
Chain of Cytochrome P450 2C19 (P33261 whole entry): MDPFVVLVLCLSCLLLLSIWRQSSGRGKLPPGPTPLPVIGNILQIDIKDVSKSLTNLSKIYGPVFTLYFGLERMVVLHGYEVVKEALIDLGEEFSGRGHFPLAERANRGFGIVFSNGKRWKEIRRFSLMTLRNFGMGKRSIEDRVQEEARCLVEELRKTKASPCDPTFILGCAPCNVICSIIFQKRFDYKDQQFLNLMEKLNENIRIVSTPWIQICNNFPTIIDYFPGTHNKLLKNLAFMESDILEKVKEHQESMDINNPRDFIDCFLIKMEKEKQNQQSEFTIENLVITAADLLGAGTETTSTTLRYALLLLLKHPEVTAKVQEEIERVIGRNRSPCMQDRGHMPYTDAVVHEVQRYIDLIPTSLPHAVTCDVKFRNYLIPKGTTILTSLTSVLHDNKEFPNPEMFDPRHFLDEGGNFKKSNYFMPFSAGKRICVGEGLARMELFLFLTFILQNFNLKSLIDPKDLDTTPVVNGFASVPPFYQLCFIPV
Chain of Cytochrome P450 1A2 (P05177 whole entry): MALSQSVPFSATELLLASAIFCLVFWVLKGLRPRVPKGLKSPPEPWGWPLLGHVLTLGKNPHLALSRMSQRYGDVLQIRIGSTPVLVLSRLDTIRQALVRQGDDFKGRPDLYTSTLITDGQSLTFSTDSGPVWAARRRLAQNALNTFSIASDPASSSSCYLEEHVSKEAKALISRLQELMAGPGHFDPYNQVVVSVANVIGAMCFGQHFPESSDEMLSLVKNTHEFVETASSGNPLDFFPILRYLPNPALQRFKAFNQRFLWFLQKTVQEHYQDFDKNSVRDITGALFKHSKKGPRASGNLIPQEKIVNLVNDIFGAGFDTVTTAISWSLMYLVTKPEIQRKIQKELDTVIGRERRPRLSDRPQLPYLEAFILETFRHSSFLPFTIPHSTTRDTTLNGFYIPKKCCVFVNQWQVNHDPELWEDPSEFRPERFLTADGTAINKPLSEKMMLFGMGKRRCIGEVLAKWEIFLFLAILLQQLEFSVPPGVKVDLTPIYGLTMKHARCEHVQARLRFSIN
Chain of Cytochrome P450 3A4 (P08684 whole entry): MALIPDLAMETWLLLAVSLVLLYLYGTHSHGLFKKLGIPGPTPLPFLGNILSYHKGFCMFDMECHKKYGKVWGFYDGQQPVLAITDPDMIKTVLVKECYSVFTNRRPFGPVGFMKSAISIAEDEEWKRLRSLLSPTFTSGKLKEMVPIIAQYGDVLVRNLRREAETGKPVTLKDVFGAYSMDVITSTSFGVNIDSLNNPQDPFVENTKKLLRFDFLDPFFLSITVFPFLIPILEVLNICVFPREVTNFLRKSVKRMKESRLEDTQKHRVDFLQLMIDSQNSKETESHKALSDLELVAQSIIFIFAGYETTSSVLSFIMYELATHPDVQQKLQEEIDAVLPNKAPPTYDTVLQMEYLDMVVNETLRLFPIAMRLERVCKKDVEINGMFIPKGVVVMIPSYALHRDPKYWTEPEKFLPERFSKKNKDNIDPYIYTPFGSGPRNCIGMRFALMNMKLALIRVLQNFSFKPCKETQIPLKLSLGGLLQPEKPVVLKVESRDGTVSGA
Description for P2Y purinoceptor 14: Displacement of MRS4174 from human P2Y14R expressed in CHO cells preincubated for 30 mins followed by MRS4174 addition measured after 30 mins by flow cytometric method

Turning to `CCN(CC)CC.NC(=O)c1ccc(-c2cc(C(=O)O)cc(-n3cc(-c4ccc(C(F)(F)F)cc4)nn3)c2)cc1`, affinity in series [1] was put at a Ki of 1.47 µM. The compound further showed a half-life in [2] of 12 min. Also, the IC50 on Cytochrome P450 1A2 is no less than 30 µM; against Cytochrome P450 2C9, no less than 30 µM; on Cytochrome P450 2C19 it was no less than 30 µM; against Cytochrome P450 2D6, no less than 30 µM; at Cytochrome P450 3A4, no less than 30 µM; in series [7], 0.166 µM. In addition, the IC50 on P2Y purinoceptor 14 came to 0.269 µM. Moreover, the remaining at 2 h in series [3], in series [4] and in series [5] was 94 to 100% each time. The compound further displayed a CC50 in the series with HepG2 greater than 30 µM. Besides, in [6], the solubility came out at 138 µg/mL.
